Experimental data: PubChem BioAssay AID1963873 (Molecular Pharmacology Branch, DTP, NCI, 2024)

Tested on: 276233-004-R-J1-PDC KRAS spheroids with HUVEC/MSC, viability
Experiment: Anticancer human tumor 276233-004-R-J1-PDC patient-derived colon adenocarcinoma cell line growth inhibition [KRAS2]
Settings: for IC50: curve of first compound; for viability, T/C: stronger effect = lower value
Summary of the method: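 Combination screen of spheroid viability in tumor-cell co-cultures with endothelial (HUVEC) and mesenchymal stem cell stroma. Each agent was tested in half-log dilutions, topping at clinical Cmax or at 10 microM without a known Cmax.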

[1] = second compound 0.1 µM, first compound 0.0316 µM
[2] = second compound 0.1 µM, first compound 0.1 µM
[3] = second compound 0.316 µM, first compound 0.0316 µM
[4] = second compound 0.316 µM, first compound 0.1 µM
[5] = second compound 1 µM, first compound 0.0316 µM
[6] = second compound 1 µM, first compound 0.1 µM
[7] = second compound 3.16 µM, first compound 0.0316 µM
[8] = second compound 3.16 µM, first compound 0.1 µM
[9] = second compound 10 µM, first compound 0.0316 µM
[10] = second compound 10 µM, first compound 0.1 µM
[11] = second compound 0.1 µM, first compound 0.316 µM
[12] = second compound 0.1 µM, first compound 1 µM
[13] = second compound 0.1 µM, first compound 3.16 µM
[14] = second compound 0.1 µM, first compound 10 µM
[15] = second compound 0.316 µM, first compound 0.316 µM
[16] = second compound 0.316 µM, first compound 1 µM
[17] = second compound 0.316 µM, first compound 3.16 µM
[18] = second compound 0.316 µM, first compound 10 µM
[19] = second compound 1 µM, first compound 0.316 µM
[20] = second compound 1 µM, first compound 1 µM
[21] = second compound 1 µM, first compound 3.16 µM
[22] = second compound 1 µM, first compound 10 µM
[23] = second compound 3.16 µM, first compound 0.316 µM
[24] = second compound 3.16 µM, first compound 1 µM
[25] = second compound 3.16 µM, first compound 3.16 µM
[26] = second compound 3.16 µM, first compound 10 µM
[27] = second compound 10 µM, first compound 0.316 µM
[28] = second compound 10 µM, first compound 1 µM
[29] = second compound 10 µM, first compound 3.16 µM
[30] = second compound 10 µM, first compound 10 µM
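Also: cells exposed to agents for seven days before viability read.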
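For viability, T/C in this document: 100% = DMSO vehicle control wells and lower values mean fewer viable cells.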

Compound | IC50 (second compound 0.1 µM) [µM] | IC50 (second compound 0.316 µM) [µM] | IC50 (second compound 1 µM) [µM] | IC50 (second compound 3.16 µM) [µM] | IC50 (second compound 10 µM) [µM] | viability, T/C [1] [%] | viability, T/C [2] [%] | viability, T/C [3] [%] | viability, T/C [4] [%] | viability, T/C [5] [%] | viability, T/C [6] [%] | viability, T/C [7] [%] | viability, T/C [8] [%] | viability, T/C [9] [%] | viability, T/C [10] [%] | viability, T/C [11] [%] | viability, T/C [12] [%] | viability, T/C [13] [%] | viability, T/C [14] [%] | viability, T/C [15] [%] | other results
CC(C)n1nc(-c2ccc3oc(N)nc3c2)c2c(N)ncnc21 + CC1OCC2(CCN(c3cnc(Sc4ccnc(N)c4Cl)c(N)n3)CC2)C1N | 0.0678 | > 0.1 | 0.0489 | 0.0121 | 0.00782 | 54.1 | 47.1 | 53.8 | 57.5 | 52.5 | 44.7 | 40.3 | 32.5 | 43.4 | 40.1 | – | – | – | – | – | viability, T/C (second compound 0.1 µM, first compound 0.000316 µM): 87.9%; viability, T/C (second compound 0.1 µM, first compound 0.001 µM): 104%; viability, T/C (second compound 0.1 µM, first compound 0.00316 µM): 71.9%; viability, T/C (second compound 0.1 µM, first compound 0.01 µM): 69.7%; viability, T/C (second compound 0.316 µM, first compound 0.000316 µM): 90.9%; viability, T/C (second compound 0.316 µM, first compound 0.001 µM): 81.7%; viability, T/C (second compound 0.316 µM, first compound 0.00316 µM): 67.5%; viability, T/C (second compound 0.316 µM, first compound 0.01 µM): 68.9%; viability, T/C (second compound 1 µM, first compound 0.000316 µM): 80.9%; viability, T/C (second compound 1 µM, first compound 0.001 µM): 68.1%; viability, T/C (second compound 1 µM, first compound 0.00316 µM): 77%; viability, T/C (second compound 1 µM, first compound 0.01 µM): 59.1%; viability, T/C (second compound 3.16 µM, first compound 0.000316 µM): 73.7%; viability, T/C (second compound 3.16 µM, first compound 0.001 µM): 74.5%; viability, T/C (second compound 3.16 µM, first compound 0.00316 µM): 51.6%; viability, T/C (second compound 3.16 µM, first compound 0.01 µM): 57.7%; viability, T/C (second compound 10 µM, first compound 0.000316 µM): 70.6%; viability, T/C (second compound 10 µM, first compound 0.001 µM): 66.8%; viability, T/C (second compound 10 µM, first compound 0.00316 µM): 64.4%; viability, T/C (second compound 10 µM, first compound 0.01 µM): 45.9%
CC1(C)CCC(CN2CCN(c3ccc(C(=O)NS(=O)(=O)c4ccc(NCC5CCOCC5)c([N+](=O)[O-])c4)c(Oc4cnc5[nH]ccc5c4)c3)CC2)=C(c2ccc(Cl)cc2)C1 + CC1OCC2(CCN(c3cnc(Sc4ccnc(N)c4Cl)c(N)n3)CC2)C1N | > 10 | 5.97 | 3.18 | 2.57 | 3.2 | 78.6 | 91.9 | 89.7 | 77.9 | 67.3 | 75 | 69.1 | 62.6 | 60.1 | 72 | 72.4 | 116 | 74.8 | 54.9 | 89.2 | viability, T/C [16]: 81%; viability, T/C [17]: 63.7%; viability, T/C [18]: 39%; viability, T/C [19]: 85.7%; viability, T/C [20]: 62.3%; viability, T/C [21]: 51.6%; viability, T/C [22]: 27.2%; viability, T/C [23]: 77.5%; viability, T/C [24]: 81.1%; viability, T/C [25]: 45%; viability, T/C [26]: 24.8%; viability, T/C [27]: 65.8%; viability, T/C [28]: 72.7%; viability, T/C [29]: 50.4%; viability, T/C [30]: 14.4%
COc1cc(Nc2ncc3c(n2)-c2ccc(Cl)cc2C(c2c(F)cccc2OC)=NC3)ccc1C(=O)O + CC1OCC2(CCN(c3cnc(Sc4ccnc(N)c4Cl)c(N)n3)CC2)C1N | > 10 | > 10 | > 10 | 0.865 | < 0.0316 | 107 | 85.6 | 83.9 | 82.5 | 75 | 73.8 | 61 | 51.1 | 46.5 | 49.2 | 86 | 75.6 | 99 | 68.5 | 84.7 | viability, T/C [16]: 82.4%; viability, T/C [17]: 67.1%; viability, T/C [18]: 64%; viability, T/C [19]: 75.2%; viability, T/C [20]: 74.9%; viability, T/C [21]: 65%; viability, T/C [22]: 52.2%; viability, T/C [23]: 51.3%; viability, T/C [24]: 55.2%; viability, T/C [25]: 44.4%; viability, T/C [26]: 45.2%; viability, T/C [27]: 41.9%; viability, T/C [28]: 42%; viability, T/C [29]: 54%; viability, T/C [30]: 48%
COc1cc2nccc(Oc3ccc(NC(=O)C4(C(=O)Nc5ccc(F)cc5)CC4)cc3)c2cc1OC + CC1OCC2(CCN(c3cnc(Sc4ccnc(N)c4Cl)c(N)n3)CC2)C1N | > 10 | > 10 | > 10 | > 10 | 3.58 | 78.9 | 77.1 | 73.5 | 64.7 | 65 | 67.4 | 55.5 | 67.9 | 71.8 | 59.7 | 85.4 | 75.1 | 80 | 77.6 | 69.5 | viability, T/C [16]: 72.7%; viability, T/C [17]: 81.9%; viability, T/C [18]: 59.6%; viability, T/C [19]: 60.7%; viability, T/C [20]: 75.7%; viability, T/C [21]: 70.9%; viability, T/C [22]: 52.7%; viability, T/C [23]: 55.1%; viability, T/C [24]: 61.7%; viability, T/C [25]: 72.2%; viability, T/C [26]: 44%; viability, T/C [27]: 56.7%; viability, T/C [28]: 53%; viability, T/C [29]: 58.2%; viability, T/C [30]: 42.6%
